Assay results as given in article PMC2895764 (Journal of molecular biology, 2010).

Experiments:
NIH 3T3 cell = experiment: Reactivation of K-ras-mediated epigenetic silencing of Fas gene; format: cell-based
G9a-like protein (GLP) = details: cited from earlier work

Structure (SMILES)	reactivation (derepression) of Ras-mediated epigenetic silencing of Fas (NIH 3T3 cell)	IC50 against GLP (G9a-like protein (GLP))
Nc1ncn([C@H]2C[C@H](O)[C@@H](CO)O2)c(=O)n1 [5-aza, 5-aza-2′-deoxycytidine]	derepressed	–
COc1cc2nc(N3CCCN(C)CC3)nc(NC3CCN(Cc4ccccc4)CC3)c2cc1OC [BIX-01294]	derepressed	low μM range
